Where two headings read alike, the source gives them in different places.
What was measured:
[1] = biological target: T1, CCK receptor (Pancreas) (Rattus norvegicus, UniProt P30551); assay: CCK Receptor Binding (Pancreas), displacement of 125I-CCK-8; design: species or system rat (male Sprague-Dawley); conditions: 125I-CCK-8 50 pM, rat pancreas membranes; for IC50: 25° C., 2 hours
T1 construct: The whole pancreas was dissected free of fat tissue and was homogenized; from tissue; host or cells: rat whole pancreas (male Sprague-Dawley), membrane homogenate
T1 sequence (P30551 1-444): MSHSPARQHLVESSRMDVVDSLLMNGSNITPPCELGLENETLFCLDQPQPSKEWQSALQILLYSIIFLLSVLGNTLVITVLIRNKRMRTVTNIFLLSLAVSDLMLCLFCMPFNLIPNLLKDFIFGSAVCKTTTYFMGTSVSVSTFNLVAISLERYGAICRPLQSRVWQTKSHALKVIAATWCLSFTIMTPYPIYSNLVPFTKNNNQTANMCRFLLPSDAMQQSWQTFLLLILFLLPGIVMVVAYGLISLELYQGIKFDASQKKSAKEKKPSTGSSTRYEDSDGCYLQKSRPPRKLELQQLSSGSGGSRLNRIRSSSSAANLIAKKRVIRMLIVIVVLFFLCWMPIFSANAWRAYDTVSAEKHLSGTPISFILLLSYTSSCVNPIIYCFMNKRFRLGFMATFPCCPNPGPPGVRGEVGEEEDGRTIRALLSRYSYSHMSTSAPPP
Method: CCK-8 sulphated was radiolabelled with ^125 I-Bolton Hunter reagent (2000 Ci/mmole). Receptor binding was performed according to Chang and Lotti (Proc. Natl. Acad. Sci. 83, 4923-4926, 1986) with minor modifications.
Male Sprague-Dawley rats (150-200 g) were sacrificed by decapitation. The whole pancreas was dissected free of fat tissue and was homogenized in 25 volumes of ice-cold 10 mM N-2-hydroxyethyl-piperazine-N'-2-ethane sulphonic acid (HEPES) buffer with 0.1% soya bean trypsin inhibitor (pH 7.4 at 25° C. ) with a Kinematica Polytron. The homogenates were centrifuged at 47,800 g for 10 min. Pellets were resuspended in 10 volumes of binding assay buffer (20mM (HEPES)), 1 mM ethylene glycol-bis-(β-aminoethylether-N,N'-tetraacetic acid) (EGTA), 5 mM MgCl2, 150 mM NaCl, bacitracin 0.25 mg/ml, soya bean trypsin inhibitor 0.1 mg/ml, and bovine serum albumin 2 mg/ml pH 6.5 at 25° C.) using a Teflon (trademark). homogenizer, 15 strokes at 500 rpm. The homogenate was further diluted in binding assay buffer to give a final concentration of 0.5 mg original wet weight/1 ml buffer. […] All assays were run in.duplicate. The reaction mixtures were incubated at 25° C. for 2 hours and the reaction terminated by rapid filtration (Brandell 24 well cell harvester) over Whatman GF/C filters, washing 3×4 mls with ice-cold 100 Mm NaCl. The radioactivity on the filters was counted with a LKB gamma counter.
(§1) Drug displacement studies were performed with at least 10 concentrations of compounds of Formula I and the IC50 values were determined by regression analysis IC50 refers to the concentration of the compound required to inhibit 50% of specific binding of ^125 I-CCK-8.

[2] = biological target: T2, CCK receptor (Brain) (Cavia porcellus, UniProt H0VZC5); assay: biochemical; assay type: binding, guinea pig (male Hartley), cortex
T2 construct: the cortex was removed and homogenized in 25 mL ice-cold 0.32M sucrose; from tissue; host or cells: guinea pig cortex (male Hartley), P2 membrane pellet
T2 sequence (H0VZC5 1-426): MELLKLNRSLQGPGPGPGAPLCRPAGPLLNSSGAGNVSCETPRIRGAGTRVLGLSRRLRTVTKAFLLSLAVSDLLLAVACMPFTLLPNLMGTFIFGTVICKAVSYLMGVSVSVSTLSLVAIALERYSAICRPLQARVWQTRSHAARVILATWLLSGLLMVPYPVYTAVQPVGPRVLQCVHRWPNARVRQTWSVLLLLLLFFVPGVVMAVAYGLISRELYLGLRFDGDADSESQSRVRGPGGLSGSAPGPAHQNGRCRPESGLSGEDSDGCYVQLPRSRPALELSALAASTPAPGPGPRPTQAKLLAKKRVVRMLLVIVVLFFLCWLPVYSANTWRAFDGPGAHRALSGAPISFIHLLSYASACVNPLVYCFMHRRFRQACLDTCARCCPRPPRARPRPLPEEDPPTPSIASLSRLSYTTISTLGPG
Method: CCK-8 sulphated was radiolabelled and the binding was performed according to the description for the pancreas method with minor modifications.
Male Hartley guinea pigs (300-500 g) were sacrificed by decapitation and the cortex was removed and homogenized in 25 mL ice-cold 0.32M sucrose. The homogenates were centrifuged at 1000 g for 10 minutes and the resulting supernatant was recentrifuged at 20,000 g for 20 minutes. The P2 pellet was resuspended in binding assay buffer (20 mM HEPES, 5 mM MgCl2, 0.25 mg/ml bacitracin, 1 mM EGTA pH 6.5 at 25° C. ), using a Teflon (trademark) homogenizer (5 strokes at 500 rpm) to give a final concentration of 10 mg original wet weight/1.2 ml buffer. […] All assays were run in duplicate. The reaction mixtures were incubated at 25° C. for 2 hours and then the reaction was terminated by rapid filtration (Brandell 24 well cell harvester) on Whatman GF/C filters with 3×5 ml washes of cold 100 mM NaCl. The radioactivity on the filters was counted with a LKB gamma counter.
as §1

[3] = biological target: T3, Gastrin receptor (Cavia porcellus, UniProt H0VZC5); assay: Gastrin Receptor Binding in Guinea Pig Gastric Glands, displacement of 125I-gastrin; design: species or system guinea pig (male Hartley); conditions: 125I-gastrin 0.1 nM, 25° C., 30 minutes
T3 construct: from tissue; host or cells: guinea pig gastric mucosal glands (male Hartley), isolated with collagenase
T3 sequence (H0VZC5 1-426): T2 sequence (H0VZC5 1-426)
Method: Gastrin antagonist activity of compounds of Formula I was determined using the following assay.
Guinea pig gastric mucosal glands were prepared by the procedure of Chang et. al., Science, 230, 177-179 (1985) with slight modifications. […] The tissues were passed twice through a 5 ml syringe to liberate the gastric glands, and then filtered through Nitex (trademark) #202 gauge nylon mesh. The filtered glands were centrifuged at 272 g for 5 minutes and washed twice by resuspension in 25 ml buffer and centrifugation.
The washed guinea pig gastric glands prepared as above were resuspended in 25 ml of standard buffer. For binding studies, to 250 μl of gastric glands, 30 μl of buffer (for total binding) or gastrin (3 μM final concentration, for nonspecific binding) or test compound and 20 μl of ^125 I-gastrin (NEN, 2200 Ci/mmole, 0.1 nM final concentration) were added. All assays were run in triplicate. […] The reaction mixtures, after incubation at 25° C. for 30 minutes in a shaking water bath were rapidly filtered (Brandell 24 well cell harvester) over Whatman G/F B filters presoaked in assay buffer and immediately washed further with 3×4 ml of 100 mM ice cold NaCl. The radioactivity on the filters was measured using a LKB gamma counter.

[4] = 125I-CCK-8 50 pM, guinea pig cortex membranes, 25° C., 2 hours, read-out: IC50, 125I-CCK Brain

SMILES	IC50 [2, 4] [nM]	IC50 [3] [nM]	% (inhibition of 125I-CCK binding) Pancreas ([1]; at 3 μM) [%]	IC50 [1] [nM]	IC50 [2] [nM]
CN1C(=O)C(NC(=O)Nc2cccc(C(=O)NS(=O)(=O)C(C)(C)C)c2)N=C(C2CCCCC2)c2ccccc21 (racemic) [Example 31, N-[3(R,S)-5-Cyclohexyl-2,3-dihydro-1-methyl-2-oxo-1H-1,4-benzodiazepin-3-yl]N'-[3-(1,1-dimethylethylsulphonylaminocarbonyl)phenyl]urea]	0.22			6.2	
CN1C(=O)C(NC(=O)Nc2cccc([S+](C)[O-])c2)N=C(C2CCCCC2)c2ccccc21 (racemic) [Example 42, N-[3(R,S)-5-Cyclohexyl-2,3-dihydro-1-methyl-2-oxo-1H-1,4-benzodiazepin-3-yl]N'-[3(R,S)-(methylsulphinyl)phenyl]urea]				18	15
CC(C)CN1C(=O)C(NC(=O)Nc2cccc(-c3nn[nH]n3)c2)N=C(C2CCCCC2)c2ccccc21 (racemic) [Example 2, N-[3(R,S)-5-Cyclohexyl-2,3-dihydro-1-(2-methylpropyl)-2-oxo-1H-1,4-benzodiazepin-3-yl] N'-[3-tetrazol-5-ylphenyl]urea]			27		

Now from value to compound, other results behind:

IC50 [2, 4] [nM]	IC50 [3] [nM]	% (inhibition of 125I-CCK binding) Pancreas ([1]; at 3 μM) [%]	SMILES	IC50 [1] [nM]	IC50 [2] [nM]
0.56	1.18		CN1C(=O)C(NC(=O)Nc2cccc(C(=O)NS(=O)(=O)C(C)(C)C)c2)N=C(C2CCCC2)c2ccccc21 (racemic) [Example 39, N-[3(R,S)-5-Cyclopentyl-2,3-dihydro-1-methyl-2-oxo-1H-1,4-benzodiazepin-3-yl]N'-[3-(1,1-dimethylethylsulphonylaminocarbonyl)phenylurea]	270	
6.8			CN1C(=O)C(NC(=O)Nc2cccc(S(=O)(=O)Nc3cnccn3)c2)N=C(C2CCCCC2)c2ccccc21 (racemic) [Example 22, N-[3(R,S)-5-Cyclohexyl-2,3-dihydro-1-methyl-2-oxo-1H-1,4-benzodiazepin-3-yl] N'-[3-(2-pyrazinylaminosulphonyl)phenyl]urea]	70	

Source: patent US5360802A, “Benzodiazepine derivatives, compositions containing them and their use in therapy” (priority 1992, dated 1994)
